# Test results: the supplement of paper PMC11061612
# Key:
# Assay in all cases: Bliss excess, mean over the matrix (fraction); higher = more synergy
# [1] = tested on: BV-173 (Chronic Myelogenous Leukemia)
# Outline: (§1)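 Bliss excess equals the observed combination effect minus the expected value EA + EB − EA·EB, where EA and EB are the effects of each agent alone. Combination Emax is the second-highest inhibition within the matrix. Inhibition was scaled from CellTiter-Glo 2.0 luminescence, with 0 set by vehicle wells and 1 by blank wells, after 72 hours of two-drug dosing of cells plated in 1536-well plates.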
# EW-18 (Ewing's Sarcoma) = tested on: EW-18 (Ewing's Sarcoma)
# Outline: as §1
# EW-3 (Ewing's Sarcoma) = tested on: EW-3 (Ewing's Sarcoma)
# Outline: as §1
# GI-1 (Glioblastoma) = tested on: GI-1 (Glioblastoma)
# Outline: as §1
# [2] = tested on: HC-1 (Other Blood Carcinomas)
# Outline: as §1
# [3] = tested on: HSC-2 (Oral Cavity Carcinoma)
# Outline: as §1
# [4] = tested on: JHH-7 (Hepatocellular Carcinoma)
# Outline: as §1
# [5] = tested on: KP-2 (Pancreatic Carcinoma)
# Outline: as §1
# [6] = tested on: KYSE-150 (Esophageal Squamous Cell Carcinoma)
# Outline: as §1
# [7] = tested on: MFE-319 (Endometrial Carcinoma)
# Outline: as §1
# [8] = tested on: NCI-H1573 (Lung Adenocarcinoma)
# Outline: as §1
# [9] = tested on: NCI-H2347 (Lung Adenocarcinoma)
# Outline: as §1
# [10] = tested on: NCI-H513 (Other Solid Carcinomas)
# Outline: as §1
# [11] = tested on: NCI-N87 (Gastric Carcinoma)
# Outline: as §1
# NH-12 (Neuroblastoma) = tested on: NH-12 (Neuroblastoma)
# Outline: as §1
# [12] = tested on: OCUM-1 (Gastric Carcinoma)
# Outline: as §1
# [13] = tested on: PF-382 (T-Lymphoblastic Leukemia)
# Outline: as §1
# RPMI-7951 (Melanoma) = tested on: RPMI-7951 (Melanoma)
# Outline: as §1
# [14] = tested on: SCC-3 (B-Cell Non-Hodgkin's Lymphoma)
# Outline: as §1
# [15] = tested on: TGBC11TKB (Gastric Carcinoma)
# Outline: as §1
Compound,Bliss excess [1],Bliss excess (EW-18 (Ewing's Sarcoma)),Bliss excess (EW-3 (Ewing's Sarcoma)),Bliss excess (GI-1 (Glioblastoma)),Bliss excess [2],Bliss excess [3],Bliss excess [4],Bliss excess [5],Bliss excess [6],Bliss excess [7],Bliss excess [8],Bliss excess [9],Bliss excess [10],Bliss excess [11],Bliss excess (NH-12 (Neuroblastoma)),Bliss excess [12],Bliss excess [13],Bliss excess (RPMI-7951 (Melanoma)),Bliss excess [14],Bliss excess [15]
"Cc1c2c(nn1C)CSCc1cc(n(C)n1)CSc1cc(c3ccccc3c1)OCCCc1c(C(=O)O)n(C)c3c-2c(Cl)ccc13 [AZD5991] + C[C@@H]1COCCN1C2=NC(=NC(=C2)C3(CC3)[S@](=N)(=O)C)C4=C5C=CNC5=NC=C4 [AZD6738] (first compound max 1 µM, 7x7, partner max 10 µM)",-0.0537,-0.0141,0.0207,-0.0238,0.0639,-0.0459,0.0642,0.0446,0.0556,0.05,-0.033,-0.0489,0.0278,-0.0285,0.0031,-0.0052,0.063,0.0095,0.0538,-0.0218
"CC1(C)CCC(CN2CCN(c3ccc(C(=O)NS(=O)(=O)c4ccc(NCC5CCOCC5)c([N+](=O)[O-])c4)c(Oc4cnc5[nH]ccc5c4)c3)CC2)=C(c2ccc(Cl)cc2)C1 [Venetoclax] + C[C@@H](Nc1cc(F)cc(F)c1)c1cc(C(=O)N(C)C)cc2c(=O)cc(N3CCOCC3)oc12 [AZD8186] (first compound max 1 µM, 7x7, partner max 3 µM)",-0.0477,0.0781,0.0336,-0.0091,0.0693,-0.0482,-0.0516,-0.0312,-0.0281,-0.0419,-0.0247,-0.0045,-0.0586,-0.111,0.124,-0.0263,0.0111,-0.0344,0.0263,-0.0067
"NC1(C(=O)N[C@@H](CCO)c2ccc(Cl)cc2)CCN(c2ncnc3[nH]ccc23)CC1 [Capivasertib] + CC(C)n1c(=O)n(C)c2cnc3cc(F)c(-c4ccc(OCCCN5CCCCC5)nc4)cc3c21 [AZD1390] (first compound max 10 µM, 7x7, partner max 0.3 µM)",-0.0639,-0.084,-0.0908,-0.0226,-0.0706,-0.0117,-0.0584,-0.0612,0.0164,-0.0921,-0.111,-0.0524,-0.0506,-0.0223,-0.134,-0.039,-0.0211,-0.0748,-0.0169,-0.0598
"Cc1c2c(nn1C)CSCc1cc(n(C)n1)CSc1cc(c3ccccc3c1)OCCCc1c(C(=O)O)n(C)c3c-2c(Cl)ccc13 [AZD5991] + Cn1cnc2c(F)c(Nc3ccc(Br)cc3Cl)c(C(=O)NOCCO)cc21 [Selumetinib] (first compound max 1 µM, 7x7, partner max 3 µM)",0.0265,0.002,-0.0435,-0.0491,0.0827,-0.0024,-0.0649,0.137,0.0402,-0.0233,-0.0059,-0.0006,-0.0255,0.0633,0.0026,-0.0034,0.0006,-0.0072,0.0783,0.0592
"COc1nnc2ccc(N3CCC(c4ccc(OCCN5CCN(C)C(=O)[C@H]5C)cc4)CC3)nn12 [AZD5153] + C=CCn1c(=O)c2cnc(Nc3ccc(N4CCN(C)CC4)cc3)nc2n1-c1cccc(C(C)(C)O)n1 [AZD1775] (first compound max 1 µM, partner max 1 µM)",-0.0256,-0.0163,-0.122,-0.0143,-0.078,-0.0167,-0.0749,-0.0288,-0.049,-0.13,-0.0197,0.0293,-0.0857,-0.0415,-0.123,-0.0217,-0.0176,-0.0223,-0.046,-0.0699
"Cc1cc2ncnn2cc1Nc1ncc2c(n1)n(C1CCOCC1)c(=O)n2C [AZD7648] + C=CCn1c(=O)c2cnc(Nc3ccc(N4CCN(C)CC4)cc3)nc2n1-c1cccc(C(C)(C)O)n1 [AZD1775] (first compound max 10 µM, partner max 1 µM)",0.0237,-0.0322,-0.0894,0.0071,-0.106,0.0566,-0.0337,-0.014,0.0333,-0.0055,-0.0215,-0.0279,0.0054,-0.0342,0.0005,-0.0244,-0.0029,-0.039,-0.0277,-0.0551
"COc1cc2ncnc(Nc3ccc(F)c(Cl)c3)c2cc1OCCCN1CCOCC1 [Gefitinib] + CC(C)n1c(=O)n(C)c2cnc3cc(F)c(-c4ccc(OCCCN5CCCCC5)nc4)cc3c21 [AZD1390] (first compound max 10 µM, 7x7, partner max 0.3 µM)",-0.0778,-0.0343,-0.0347,-0.013,-0.127,-0.0442,-0.0451,-0.0438,-0.0834,-0.0805,-0.104,-0.0771,-0.0828,-0.064,-0.0643,-0.101,-0.0668,-0.0498,-0.0418,-0.0382
"COc1nnc2ccc(N3CCC(c4ccc(OCCN5CCN(C)C(=O)[C@H]5C)cc4)CC3)nn12 [AZD5153] + CCN(CCO)CCCOc1ccc2c(Nc3cc(CC(=O)Nc4cccc(F)c4)[nH]n3)ncnc2c1 [AZD2811] (first compound max 1 µM, 7x7, partner max 1 µM)",-0.0561,-0.0273,-0.115,0.0977,-0.0099,-0.0106,-0.0696,-0.0065,-0.0134,-0.085,-0.0621,-0.0549,-0.108,-0.0589,-0.121,-0.0194,-0.0108,-0.0243,0.0474,-0.0962
"CC1(C)CCC(CN2CCN(c3ccc(C(=O)NS(=O)(=O)c4ccc(NCC5CCOCC5)c([N+](=O)[O-])c4)c(Oc4cnc5[nH]ccc5c4)c3)CC2)=C(c2ccc(Cl)cc2)C1 [Venetoclax] + CCN(CCO)CCCOc1ccc2c(Nc3cc(CC(=O)Nc4cccc(F)c4)[nH]n3)ncnc2c1 [AZD2811] (first compound max 1 µM, 7x7, partner max 1 µM)",-0.0739,-0.0131,0.0634,0.0405,0.177,-0.0264,0.0033,-0.0247,0.0115,0.0015,-0.0246,-0.053,-0.04,-0.004,0.0685,0.0236,0.0279,0.0107,0.0418,0.0287
"CC1(C)CCC(CN2CCN(c3ccc(C(=O)NS(=O)(=O)c4ccc(NCC5CCOCC5)c([N+](=O)[O-])c4)c(Oc4cnc5[nH]ccc5c4)c3)CC2)=C(c2ccc(Cl)cc2)C1 [Venetoclax] + C=CCn1c(=O)c2cnc(Nc3ccc(N4CCN(C)CC4)cc3)nc2n1-c1cccc(C(C)(C)O)n1 [AZD1775] (first compound max 1 µM, partner max 1 µM)",-0.0206,-0.014,0.0735,-0.0127,0.0665,-0.0096,0.0071,-0.0068,-0.0452,-0.0129,-0.0513,-0.0762,-0.0608,0.0552,0.0148,0.0513,-0.0639,-0.0559,-0.0024,-0.0171
"C[C@@H](c1ccc2nccn2c1)n1nnc2ncc(-c3cnn(C)c3)nc21 [Savolitinib] + Cc1c2c(nn1C)CSCc1cc(n(C)n1)CSc1cc(c3ccccc3c1)OCCCc1c(C(=O)O)n(C)c3c-2c(Cl)ccc13 [AZD5991] (first compound max 1 µM, 7x7, partner max 1 µM)",-0.0404,-0.0113,-0.0011,0.0227,-0.0199,-0.0493,-0.0404,-0.0468,-0.0428,-0.0751,-0.036,-0.0559,-0.0733,-0.0513,-0.0375,-0.0085,-0.0272,-0.0199,0.0239,-0.0197
"NC1(C(=O)N[C@@H](CCO)c2ccc(Cl)cc2)CCN(c2ncnc3[nH]ccc23)CC1 [Capivasertib] + COc1nnc2ccc(N3CCC(c4ccc(OCCN5CCN(C)C(=O)[C@H]5C)cc4)CC3)nn12 [AZD5153] (first compound max 10 µM, 7x7, partner max 1 µM)",-0.0607,0.0119,0.0429,0.0578,0.0365,0.0456,0.0156,0.0358,0.0618,0.0499,-0.0011,-0.033,-0.0222,-0.0314,0.0177,0.0318,0.0451,0.0498,0.0248,-0.0144
